The values below come from patent publication US20100210649A1, “PYRIDAZINONES AND FURAN-CONTAINING COMPOUNDS” (Sloan-Kettering Institute for Cancer Research, priority 2006, published 2010).

Holding throughout (format): cell-based, human
One assay has as its system H1650. Briefly: Non Small Cell Lung Cancer proliferation assay (Alamar Blue reduction), H1650. To be noted: primary screening, 10 μM compound in 1% DMSO (v/v); for inhibition at 10 µM: Homo sapiens, NCI-H1650. The gist of the method:
(§1)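 Dose-response run: cells were counted, dispensed at 250 cells/well onto compound, incubated 48 hours at 37° C, then incubated with Alamar Blue for an additional 48 hours before fluorescence measurement. All wells held 1% DMSO final.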
Background: The colour change of resazurin is a common sign of viable cells or microbes.

A further assay deals with H1975. Briefly: Non Small Cell Lung Cancer proliferation assay (Alamar Blue reduction), H1975. To be noted: primary screening, 10 μM compound in 1% DMSO (v/v); for inhibition at 10 µM: Homo sapiens, NCI-H1975. The procedure, abridged: as §1
Another assay deals with H3255. Briefly: Non Small Cell Lung Cancer proliferation assay (Alamar Blue reduction), H3255. To be noted: primary screening, 10 μM compound in 1% DMSO (v/v); for inhibition at 10 µM: Homo sapiens, NCI-H3255. The gist of the method:
as §1

The next assay deals with H2030. Briefly: Non Small Cell Lung Cancer proliferation assay (Alamar Blue reduction), H2030. To be noted: primary screening, 10 μM compound in 1% DMSO (v/v); for inhibition at 10 µM: Homo sapiens, NCI-H2030. The gist of the method: as §1
[1] abbreviates: read-out: percentage inhibition H1650.
The mark [2] stands for this setting: read-out: percentage inhibition H1975.
The mark [3] stands for this setting: read-out: percentage inhibition H3255.
The mark [4] stands for this setting: read-out: percentage inhibition H2030.
The mark [5] stands for this setting: H1650, read-out: PRIMARY HTS [%] H1650 (percentage inhibition).
Where [6] appears, read: H1975, read-out: PRIMARY HTS [%] H1975 (percentage inhibition).
[7] abbreviates: H3255, read-out: PRIMARY HTS [%] H3255 (percentage inhibition).
The mark [8] stands for this setting: H2030, read-out: PRIMARY HTS [%] H2030 (percentage inhibition).

SMILES strings stand for the structures. Read-outs that look alike come from different tables or passages of the source.

As to `O=c1c(SCc2ccccc2)c(SC2CCCCO2)cnn1-c1ccccc1` (stereo not drawn) [compound 182828], the inhibition at 10 µM with H1650 (setting [1]) is 25%; in the assay on H1975 (setting [2]), -5%; in the assay with H3255 (setting [3]), 18%; with H2030 (setting [4]) it was -8%.

As for `O=c1c2c(cnn1-c1ccccc1)SCCS2` [compound 195988], the inhibition at 10 µM in the assay on H1650 (setting [1]) is 13%; in the assay on H1975 (setting [2]), -7%; with H3255 (setting [3]), -18%; with H2030 (setting [4]), 7%.

For `CCCCSc1cnn(-c2ccccc2)c(=O)c1SCCCC` [compound 224766], the inhibition at 10 µM was -12% in the assay with H1650 (setting [1]), -29% with H1975 (setting [2]), 24% with H3255 (setting [3]) and 95% in the assay with H2030 (setting [4]).

Consider `N=c1c(-c2nc3ccccc3[nH]2)cc(C(=O)c2cccs2)nn1-c1ccc(Cl)cc1` [compound 186017], for which the inhibition at 10 µM in the assay with H1650 (setting [1]) is -12%; in the assay on H1975 (setting [2]) it was -6%; in the assay with H3255 (setting [3]), -13%; in the assay with H2030 (setting [4]), -4%.

Regarding `CCCOc1cnn(-c2ccccc2)c(=O)c1Cl` [compound 179389], the inhibition at 10 µM in the assay on H1650 (setting [1]) was -3%; with H1975 (setting [2]) it was 1%; with H3255 (setting [3]), 28%; with H2030 (setting [4]), 8%.

Regarding `O=C(COc1cnn(-c2ccccc2)c(=O)c1Cl)c1ccc(Br)cc1` [compound 176702], the inhibition at 10 µM with H1650 (setting [1]) was 29%; in the assay with H1975 (setting [2]), 26%; in the assay on H3255 (setting [3]), -21%; in the assay on H2030 (setting [4]), -14%.

With `CC(=O)N(C(C)=O)c1c(Cl)cnn(-c2ccccc2)c1=O` [compound 187116], the inhibition at 10 µM came to 31% in the assay with H1650 (setting [1]), 90% with H1975 (setting [2]), 27% in the assay on H3255 (setting [3]) and 4% in the assay with H2030 (setting [4]).

With `Nc1ccc(NC(=O)c2ccco2)c(Cl)c1` [compound 82456], the inhibition at 10 µM was 6% in the assay with H1650 (setting [5]), -15% with H1975 (setting [6]), 2% in the assay with H3255 (setting [7]) and -2% with H2030 (setting [8]).

Turning to `CSc1c(SCc2ccccc2)cnn(-c2ccccc2)c1=O` [compound 182831], the inhibition at 10 µM is -4% in the assay with H1650 (setting [1]), 5% in the assay on H1975 (setting [2]), -18% in the assay on H3255 (setting [3]) and -12% with H2030 (setting [4]).

Regarding `O=c1ccc(Oc2nc(N3CCCCC3)nc(N3CCCCC3)n2)nn1-c1ccccc1` [compound 196618], the inhibition at 10 µM in the assay on H1650 (setting [1]) is 3%; with H1975 (setting [2]), -14%; in the assay on H3255 (setting [3]), -33%; in the assay with H2030 (setting [4]) it was 12%.

Turning to `Cc1cc(-n2ccc3c(C#N)c(=O)n(-c4ccccc4)nc3c2=O)[nH]n1` [compound 216994], the inhibition at 10 µM with H1650 (setting [1]) is 1%; in the assay with H1975 (setting [2]), 1%; in the assay with H3255 (setting [3]) it was -3%; in the assay on H2030 (setting [4]) it was 4%.

For the molecule `CCc1c(C(=O)OC)nn(-c2ccc(C)cc2)c(=O)c1C#N` [compound 193326], the inhibition at 10 µM in the assay on H1650 (setting [1]) is -2%; in the assay on H1975 (setting [2]), -1%; in the assay with H3255 (setting [3]), -49%; with H2030 (setting [4]), -9%.

On to `Cc1ccc(C(=O)Nc2ccc3ccccc3c2)o1` [compound 105503], for which the inhibition at 10 µM with H1650 (setting [5]) was -10%; with H1975 (setting [6]), -13%; with H3255 (setting [7]) it was 0%; in the assay on H2030 (setting [8]), -7%.

Turning to `Cc1cccnc1NC(=O)c1ccc([N+](=O)[O-])o1` [compound 108321], the “PRIMARY HTS [%] H1650 (percentage inhibition)” value with H1650 (H1650) is recorded as 38%. The “PRIMARY HTS [%] H1975 (percentage inhibition)” value with H1975 (H1975) is reported as −7%. The “PRIMARY HTS [%] H3255 (percentage inhibition)” value with H3255 (H3255) turned out to be 2%. In the assay on H2030 (H2030), the “PRIMARY HTS [%] H2030 (percentage inhibition)” value was determined as 6%.

`O=c1c(SCc2ccc(Cl)cc2)c(SC2CCCCO2)cnn1-c1ccccc1` (stereo not drawn) [compound 195063]: the inhibition at 10 µM with H1650 (setting [1]) was 22%; in the assay on H1975 (setting [2]), 34%; in the assay on H3255 (setting [3]), -6%; with H2030 (setting [4]), -6%.

The term inhibition denotes the drop in the measured response relative to a control, in per cent.
